Data as given in ChEMBL document CHEMBL1135978, “Three-dimensional quantitative structure-activity relationship of 1,4-dihydropyridines as antitubercular agents” (2002).

Tested on: Mycobacterium tuberculosis
Test: Antitubercular activity against Mycobacterium tuberculosis H37Rv ATCC 27294
Type: functional
Design: concentration or dose not given beside the values; unit not given here

| SMILES | Inhibition |
| --- | --- |
| CSc1ccc(C2C(C(=O)Nc3ccc([N+](=O)[O-])cc3)=C(C)NC(C)=C2C(=O)Nc2ccc([N+](=O)[O-])cc2)cc1 | 1.5096 |
| CSc1ccc(C2C(C(=O)Nc3cccc([N+](=O)[O-])c3)=C(C)NC(C)=C2C(=O)Nc2cccc([N+](=O)[O-])c2)cc1 | 1.6901 |
| CC1=C(C(=O)Nc2ccc([N+](=O)[O-])cc2)C(c2ccc(Cl)cc2Cl)C(C(=O)Nc2ccc([N+](=O)[O-])cc2)=C(C)N1 | 1.3802 |
| CC1=C(C(=O)Nc2ccccc2Cl)C(c2ccc(Cl)cc2)C(C(=O)Nc2ccccc2Cl)=C(C)N1 | -0.6886 |
| CC1=C(C(=O)Nc2ccc([N+](=O)[O-])cc2)C(c2ccc(Cl)cc2)C(C(=O)Nc2ccc([N+](=O)[O-])cc2)=C(C)N1 | 0.2126 |
| CC1=C(C(=O)Nc2ccc(C)cc2C)C(c2ccccc2)C(C(=O)Nc2ccc(C)cc2C)=C(C)N1 | -0.865 |
| CC1=C(C(=O)Nc2ccc(Cl)cc2)C(c2cccc([N+](=O)[O-])c2)C(C(=O)Nc2ccc(Cl)cc2)=C(C)N1 | -0.3888 |
| COc1cc(C2C(C(=O)Nc3ccc(Cl)cc3)=C(C)NC(C)=C2C(=O)Nc2ccc(Cl)cc2)cc(OC)c1OC | 1.1949 |
| CC1=C(C(=O)Nc2ccc([N+](=O)[O-])cc2)C(c2ccccc2Cl)C(C(=O)Nc2ccc([N+](=O)[O-])cc2)=C(C)N1 | 1.2787 |
| CC1=C(C(=O)Nc2ccccc2Cl)C(c2ccc(Cl)cc2Cl)C(C(=O)Nc2ccccc2Cl)=C(C)N1 | -0.9079 |
| CC1=C(C(=O)Nc2cccc([N+](=O)[O-])c2)C(c2ccccc2Cl)C(C(=O)Nc2cccc([N+](=O)[O-])c2)=C(C)N1 | 1.5096 |
| COc1ccccc1NC(=O)C1=C(C)NC(C)=C(C(=O)Nc2ccccc2OC)C1c1cccc([N+](=O)[O-])c1 | 0.2498 |
| CC1=C(C(=O)Nc2ccc(C)cc2C)C(c2cccc([N+](=O)[O-])c2)C(C(=O)Nc2ccc(C)cc2C)=C(C)N1 | 0.0521 |
| CC1=C(C(=O)Nc2ccccc2Cl)C(c2ccccc2S)C(C(=O)Nc2ccccc2Cl)=C(C)N1 | -0.954 |
| COc1ccccc1NC(=O)C1=C(C)NC(C)=C(C(=O)Nc2ccccc2OC)C1c1ccc(SC)cc1 | 1.1233 |
| CC1=C(C(=O)Nc2cc(C)ccc2C)C(c2ccccc2O)C(C(=O)Nc2cc(C)ccc2C)=C(C)N1 | -0.432 |
| CC1=C(C(=O)Nc2ccccc2Cl)C(c2ccccc2O)C(C(=O)Nc2ccccc2Cl)=C(C)N1 | -1.1949 |
| CSc1ccc(C2C(C(=O)Nc3ccccc3)=C(C)NC(C)=C2C(=O)Nc2ccccc2)cc1 | 0.3474 |
| CC1=C(C(=O)Nc2cccc([N+](=O)[O-])c2)C(c2ccccc2)C(C(=O)Nc2cccc([N+](=O)[O-])c2)=C(C)N1 | 1.1949 |
| CC1=C(C(=O)Nc2cccc([N+](=O)[O-])c2)C(c2ccc(Cl)cc2Cl)C(C(=O)Nc2cccc([N+](=O)[O-])c2)=C(C)N1 | 1.6901 |
| CSc1ccc(C2C(C(=O)Nc3ccccc3Cl)=C(C)NC(C)=C2C(=O)Nc2ccccc2Cl)cc1 | 0.55 |
| COc1ccc(C2C(C(=O)Nc3ccc(Cl)cc3)=C(C)NC(C)=C2C(=O)Nc2ccc(Cl)cc2)c(O)c1 | 0.63 |
| COc1ccc(C2C(C(=O)Nc3ccccc3Cl)=C(C)NC(C)=C2C(=O)Nc2ccccc2Cl)cc1 | -0.3679 |
| CSc1ccc(C2C(C(=O)Nc3ccc(C)cc3C)=C(C)NC(C)=C2C(=O)Nc2ccc(C)cc2C)cc1 | 0.158 |
| COc1ccccc1NC(=O)C1=C(C)NC(C)=C(C(=O)Nc2ccccc2OC)C1c1ccc(Cl)cc1Cl | 1.0047 |
| COc1ccccc1NC(=O)C1=C(C)NC(C)=C(C(=O)Nc2ccccc2OC)C1c1ccc(N(C)C)cc1 | 1.1233 |
| CC1=C(C(=O)Nc2ccc(Cl)cc2)C(c2ccc(O)cc2)C(C(=O)Nc2ccc(Cl)cc2)=C(C)N1 | 0.575 |
| CC1=C(C(=O)Nc2ccccc2Cl)C(c2ccccc2Cl)C(C(=O)Nc2ccccc2Cl)=C(C)N1 | -0.6585 |
| COc1ccc(C2C(C(=O)Nc3cc(C)ccc3C)=C(C)NC(C)=C2C(=O)Nc2cc(C)ccc2C)cc1 | -0.158 |
| CC1=C(C(=O)Nc2cccc([N+](=O)[O-])c2)C(c2ccccc2O)C(C(=O)Nc2cccc([N+](=O)[O-])c2)=C(C)N1 | 1.0606 |
